Results: ChEMBL document CHEMBL1795325, “Studying synergism of methyl linked cyclohexyl thiophenes with triazole: synthesis and their cdk5/p25 inhibition activity” (Eur J Med Chem, 2011)

Target: Cyclin-dependent kinase 5/CDK5 activator 1 (Homo sapiens, UniProt Q00535)
Type: protein-complex assay

Sequence of Cyclin-dependent kinase 5/CDK5 activator 1 (Q00535 whole entry): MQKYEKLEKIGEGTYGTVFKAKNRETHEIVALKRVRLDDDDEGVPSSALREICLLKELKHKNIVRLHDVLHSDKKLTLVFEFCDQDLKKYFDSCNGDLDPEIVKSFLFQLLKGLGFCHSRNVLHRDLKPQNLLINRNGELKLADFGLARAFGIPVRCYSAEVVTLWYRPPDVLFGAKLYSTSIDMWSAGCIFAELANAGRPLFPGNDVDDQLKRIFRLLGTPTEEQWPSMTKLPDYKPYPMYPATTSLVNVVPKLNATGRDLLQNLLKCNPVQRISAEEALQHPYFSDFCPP
Sequence of Cyclin-dependent kinase 5/CDK5 activator 1 (Q15078 whole entry, further chain): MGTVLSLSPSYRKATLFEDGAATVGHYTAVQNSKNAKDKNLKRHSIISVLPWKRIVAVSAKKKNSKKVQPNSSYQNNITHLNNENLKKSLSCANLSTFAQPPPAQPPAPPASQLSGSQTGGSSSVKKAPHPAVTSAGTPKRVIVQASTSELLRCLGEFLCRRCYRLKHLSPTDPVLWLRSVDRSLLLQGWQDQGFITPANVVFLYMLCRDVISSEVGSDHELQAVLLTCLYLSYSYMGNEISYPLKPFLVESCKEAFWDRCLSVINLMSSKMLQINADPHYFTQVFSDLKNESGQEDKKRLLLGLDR

IC50 [nM]	Compound
486	N#CCSc1nnc(Cc2c(NC(=O)c3ccccc3)sc3c2CCCC3)n1NC(=O)c1ccccc1
389	COC(=O)CSc1nnc(Cc2c(NC(C)=O)sc3c2CCCC3)n1NC(=O)c1ccc(Cl)cc1
618	CC(=O)Nn1c(S)nnc1Cc1c(NC(=O)c2ccccc2)sc2c1CCCC2
467	CC(=O)NNC(=O)CSc1nnc(Cc2c(NCCC(=O)O)sc3c2CCCC3)n1NC(=O)c1ccccc1
164	O=C(O)CCNc1sc2c(c1Cc1nnc(SCSc3nnc(Cc4c(NCCC(=O)O)sc5c4CCCC5)n3NC(=O)c3ccc(Cl)cc3)n1NC(=O)c1ccc(Cl)cc1)CCCC2
236	NNC(=O)CSc1nnc(Cc2c(NC(=O)c3ccccc3)sc3c2CCCC3)n1NC(=O)c1ccc(Cl)cc1
6210	CC(=O)Nn1c(Cc2c(NCCC(=O)O)sc3c2CCCC3)nnc1SCc1nnc(S)n1N
535	CC(=O)Nn1c(Cc2c(NCCC(=O)O)sc3c2CCCC3)nnc1SCC(=O)N/N=C/c1ccccc1
267	O=C(O)CCNc1sc2c(c1Cc1nnc(SCC(=O)N/N=C/c3ccccc3)n1NC(=O)c1ccccc1)CCCC2
674	O=C(O)CCNc1sc2c(c1Cc1n[nH]c(=S)n1NC(=O)c1ccccc1)CCCC2
525	CC(=O)Nc1sc2c(c1Cc1nnc(SCC(=O)NNC(=O)c3ccccc3)n1NC(=O)c1ccc(Cl)cc1)CCCC2
4990	Nn1c(CSc2nnc(Cc3c(NCCC(=O)O)sc4c3CCCC4)n2NC(=O)c2ccccc2)n[nH]c1=S
260	CC(=O)Nc1sc2c(c1Cc1nnc(SCC(=O)NNC(=O)CCl)n1NC(=O)c1ccc(Cl)cc1)CCCC2
318	CC(=O)NNC(=O)CSc1nnc(Cc2c(NC(=O)c3ccccc3)sc3c2CCCC3)n1NC(=O)c1ccc(Cl)cc1
643	CC(=O)Nc1sc2c(c1Cc1nnc(SCC(=O)NNC(=O)CCl)n1NC(=O)c1ccccc1)CCCC2
413	CC(=O)Nc1sc2c(c1Cc1nnc(SCC(=O)NNC(=O)c3ccccc3)n1NC(=O)c1ccccc1)CCCC2
180	CC(=O)Nn1c(Cc2c(NC(=O)c3ccccc3)sc3c2CCCC3)nnc1SCC(=O)NN
6440	CC(=O)Nc1sc2c(c1Cc1nnc(SCc3n[nH]c(=S)n3N)n1NC(=O)c1ccccc1)CCCC2
734	CC(=O)Nn1c(Cc2c(NCCC(=O)O)sc3c2CCCC3)nnc1SCSc1nnc(Cc2c(NCCC(=O)O)sc3c2CCCC3)n1NC(C)=O
476	CC(=O)Nn1c(Cc2c(NCCC(=O)O)sc3c2CCCC3)nnc1SCC(=O)NNC(=O)c1ccccc1

IC50 [nM]	Compound
183	O=C(Nc1sc2c(c1Cc1nnc(S)n1NC(=O)c1ccc(Cl)cc1)CCCC2)c1ccccc1
264	NNC(=O)CSc1nnc(Cc2c(NC(=O)c3ccccc3)sc3c2CCCC3)n1NC(=O)c1ccccc1
639	CC(=O)NNC(=O)CSc1nnc(Cc2c(NC(=O)c3ccccc3)sc3c2CCCC3)n1NC(C)=O
3280	Nn1c(S)nnc1CSc1nnc(Cc2c(NC(=O)c3ccccc3)sc3c2CCCC3)n1NC(=O)c1ccc(Cl)cc1
352	CC(=O)NNC(=O)CSc1nnc(Cc2c(NCCC(=O)O)sc3c2CCCC3)n1NC(=O)c1ccc(Cl)cc1
458	CC(=O)Nc1sc2c(c1Cc1nnc(SCC#N)n1NC(C)=O)CCCC2
567	COC(=O)CSc1nnc(Cc2c(NC(=O)c3ccccc3)sc3c2CCCC3)n1NC(C)=O
766	CC(=O)Nn1c(Cc2c(NC(=O)c3ccccc3)sc3c2CCCC3)nnc1SCSc1nnc(Cc2c(NC(=O)c3ccccc3)sc3c2CCCC3)n1NC(C)=O
931	CC(=O)Nn1c(Cc2c(NCCC(=O)O)sc3c2CCCC3)nnc1SCC(=O)NN
271	O=C(O)CCNc1sc2c(c1Cc1nnc(SCC(=O)NNC(=O)c3ccccc3)n1NC(=O)c1ccc(Cl)cc1)CCCC2
366	CC(=O)NNC(=O)CSc1nnc(Cc2c(NCCC(=O)O)sc3c2CCCC3)n1NC(C)=O
213	CC(=O)Nc1sc2c(c1Cc1nnc(SCC(=O)N/N=C/c3ccccc3)n1NC(=O)c1ccc(Cl)cc1)CCCC2
578	COC(=O)CSc1nnc(Cc2c(NC(C)=O)sc3c2CCCC3)n1NC(=O)c1ccccc1
415	CC(=O)Nc1sc2c(c1Cc1nnc(SCC#N)n1NC(=O)c1ccc(Cl)cc1)CCCC2
453	CC(=O)Nc1sc2c(c1Cc1nnc(SCC(=O)N/N=C/c3ccccc3)n1NC(C)=O)CCCC2
201	NNC(=O)CSc1nnc(Cc2c(NCCC(=O)O)sc3c2CCCC3)n1NC(=O)c1ccc(Cl)cc1
327	CC(=O)NNC(=O)CSc1nnc(Cc2c(NC(C)=O)sc3c2CCCC3)n1NC(C)=O
641	COC(=O)CSc1nnc(Cc2c(NCCC(=O)O)sc3c2CCCC3)n1NC(=O)c1ccccc1
577	O=C(O)CCNc1sc2c(c1Cc1nnc(SCSc3nnc(Cc4c(NCCC(=O)O)sc5c4CCCC5)n3NC(=O)c3ccccc3)n1NC(=O)c1ccccc1)CCCC2
457	O=C(O)CCNc1sc2c(c1Cc1nnc(S)n1NC(=O)c1ccc(Cl)cc1)CCCC2

IC50 [nM]	Compound
411	CC(=O)Nn1c(Cc2c(NC(=O)c3ccccc3)sc3c2CCCC3)nnc1SCC(=O)NNC(=O)c1ccccc1
564	CC(=O)NNC(=O)CSc1nnc(Cc2c(NC(=O)c3ccccc3)sc3c2CCCC3)n1NC(=O)c1ccccc1
466	O=C(CSc1nnc(Cc2c(NC(=O)c3ccccc3)sc3c2CCCC3)n1NC(=O)c1ccccc1)NNC(=O)c1ccccc1
185	O=C(O)CCNc1sc2c(c1Cc1nnc(SCC(=O)NNC(=O)CCl)n1NC(=O)c1ccc(Cl)cc1)CCCC2
293	COC(=O)CSc1nnc(Cc2c(NC(=O)c3ccccc3)sc3c2CCCC3)n1NC(=O)c1ccc(Cl)cc1
353	COC(=O)CSc1nnc(Cc2c(NC(=O)c3ccccc3)sc3c2CCCC3)n1NC(=O)c1ccccc1
422	N#CCSc1nnc(Cc2c(NCCC(=O)O)sc3c2CCCC3)n1NC(=O)c1ccc(Cl)cc1
362	O=C(O)CCNc1sc2c(c1Cc1nnc(SCC(=O)NNC(=O)CCl)n1NC(=O)c1ccccc1)CCCC2
564	CC(=O)Nn1c(Cc2c(NC(=O)c3ccccc3)sc3c2CCCC3)nnc1SCC#N
460	CC(=O)Nc1sc2c(c1Cc1n[nH]c(=S)n1NC(=O)c1ccc(Cl)cc1)CCCC2
4590	Nn1c(CSc2nnc(Cc3c(NC(=O)c4ccccc4)sc4c3CCCC4)n2NC(=O)c2ccccc2)n[nH]c1=S
627	O=C(Nc1sc2c(c1Cc1nnc(SCSc3nnc(Cc4c(NC(=O)c5ccccc5)sc5c4CCCC5)n3NC(=O)c3ccc(Cl)cc3)n1NC(=O)c1ccc(Cl)cc1)CCCC2)c1ccccc1
551	N#CCSc1nnc(Cc2c(NC(=O)c3ccccc3)sc3c2CCCC3)n1NC(=O)c1ccc(Cl)cc1
474	CC(=O)Nc1sc2c(c1Cc1nnc(SCC(=O)NNC(=O)CCl)n1NC(C)=O)CCCC2
646	CC(=O)Nc1sc2c(c1Cc1nnc(SCSc3nnc(Cc4c(NC(C)=O)sc5c4CCCC5)n3NC(=O)c3ccccc3)n1NC(=O)c1ccccc1)CCCC2
389	COC(=O)CSc1nnc(Cc2c(NC(C)=O)sc3c2CCCC3)n1NC(C)=O
467	CC(=O)Nn1c(Cc2c(NC(=O)c3ccccc3)sc3c2CCCC3)nnc1SCC(=O)N/N=C/c1ccccc1
733	COC(=O)CSc1nnc(Cc2c(NCCC(=O)O)sc3c2CCCC3)n1NC(C)=O
258	O=C(O)CCNc1sc2c(c1Cc1nnc(SCC(=O)N/N=C/c3ccccc3)n1NC(=O)c1ccc(Cl)cc1)CCCC2
385	CC(=O)Nc1sc2c(c1Cc1nnc(SCC(=O)N/N=C/c3ccccc3)n1NC(=O)c1ccccc1)CCCC2
